From patent publication US10172356B2, “Bipyridine compound and use of same for noxious arthropod control” (Sumitomo Chemical Company, Limited, priority 2015, dated 2019)

Key:
Type in all cases: in vivo
[1] = system: western corn rootworm (Diabrotica virgifera virgifera); assay: Test Example 10: western corn rootworm on corn seedling immersed in diluted solution, 500 ppm; conditions: 120 h, corn seedling immersed 30 seconds, second instar larvae, after 5 days, 25° C., read-out: Mortality of insects
Procedure: The compound S-1 was mixed with a mixed solution of acetone and polyoxyethylene sorbitan mono-cocoate (acetone and polyoxyethylene sorbitan mono-cocoate=95 : 5 (weight ratio)) a ratio of 50 μL of the mixed solution per 1 mg of the compound S-1, and the resulting mixtures were then diluted with ion-exchange water containing 0.03% by volume of shindain (registered trademark, manufactured by Sumitomo Chemical Co. Ltd.) so that the concentration of the compound S-1 was set to 500 ppm to prepare the diluted solution of the compound S-1.
Corns (Xea mays) were sown on a tray overlaid with damped KimWipes (registered trademark). After corns were grown for 5 days, the entire seedling of the corn was immersed into the diluted solution for 30 seconds. After the seedling was dried, two grains of the seedling were installed in a plastic petri dish ([…]), and ten heads of western corn rootworm (Diabrotica virgifera virgifera) at the second instar larval stages were released onto the petri dish and the petri dish was covered with the lid. The petri dish was held at 25° C. and after 5 days, the number of died insects was counted and the mortality of insects was calculated by the following equation. Mortality of insects (%)=(Number of dead insects/Number of tested insects)×100
Similarly, using the compounds S-2, S-3, S-7, S-10, O-1 and O-2 instead of the compound S-1, the tests were carried out.

[2] = system: cabbage moth (Plutella xylostella); assay: Test Example 7: cabbage moth on sprayed cabbage, 500 ppm; conditions: 120 h, 20 mL/cup sprayed on cabbage, second instar larvae, after 5 days, 25° C., read-out: Mortality of insects
Procedure: Each of the compounds S-1, S-5, S-7, S-8, S-9, S-10, O-1, and O-2 was made to a formulation according to a similar method to that described in the Formulation example 5 and was then diluted with water so that each of the active ingredient concentration was set to 500 ppm to prepare each of the diluted solution.
A cabbage in the third leaf stage was planted in a polyethylene cup, and thereto was sprayed the diluted solution in ratio 20 mL/cup. After the above-mentioned dilutions were dried, and the stem and leaf thereof was cut and then was stalled in a 50 mL cup, and five heads of cabbage moth (Plutella xylostella) at the second instar larval stages were released into the cup and the cup was covered with the lid. The cup was held at 25° C. and after 5 days, the number of died insects was counted and the mortality of insects was calculated by the following equation. Mortality of insects (%)=(Number of dead insects/Number of tested insects)×100

[3] = system: cabbage moth (Plutella xylostella); assay: Test Example 8: cabbage moth on sprayed cabbage, 200 ppm; conditions: 120 h, 20 mL/cup sprayed on cabbage, second instar larvae, after 5 days, 25° C., read-out: Mortality of insects
Procedure: Each of the compounds S-7, S-8, S-9, S-10, and O-2 was made to a formulation according to a similar method to that described in the Formulation example 5 and was then diluted with water so that each of the active ingredient concentration was set to 200 ppm to prepare each of the diluted solution.
A cabbage in the third leaf stage was planted in a polyethylene cup, and thereto was sprayed the diluted solution in a ratio of 20 mL/cup. After the above-mentioned dilutions were dried, and the stem and leaf thereof was cut and then was installed in a 50 mL cup, and five heads of cabbage moth (Plutella xylostella) at the second instar larval stages were released into the cup and the cup was covered with the lid. The cup was held at 25° C. and after 5 days, the number of died insects was counted and the mortality insects was calculated by the following equation. Mortality of insects (%)=(Number of dead insects/Number of tested insects)×100

[4] = system: brown planthopper (Nilaparvata lugens); assay: Comparative Experiment 5 (method of Test Example 5: brown planthopper, spray, 200 ppm); conditions: brown planthopper on rice seedling, 200 ppm (method of Test Example 5)
Procedure: Rice seedling (on the developmental stage of the second true leaf) was planted in a polyethylene cup, and the diluted solutions 10 mL were sprayed. After air drying, 20 heads of 3rd to 4th instar larvae of brown planthopper (Nilaparvata lugens) were released onto the rice leaves and the plants were held at 25° C. in a greenhouse. After 6 days, the number of the surviving insects that were parasitic on the leaves of the rice was examined and the controlling value was calculated by the following equation. Controlling value (%)={1-(Cb×Tai)/(Cai×Tb)}×100 wherein the symbols in the formula represent the following descriptions. Cb: Number of the insects before treatment in untreated area; Cai: Number of the surviving parasitic insects at the time of the investigation in untreated area; Tb: Number of the insects before treatment in treated area; Tai: Number of the surviving parasitic insects at the time of the investigation in treated area; Here the “untreated area” represents an area that was sprayed by a diluted solution of the formulation described in the Formulation Example 5 without the compound A with water in the same amount as that of the treated area. […] Here A represents 100%, B represents 90 to 99%, C represents 60 to 89%, D represents 30 to 59% and represents 0 to 29% as a control value.

[5] = system: cotton aphid (Aphis gossypii); assay: Comparative Experiment 3 (method of Test Example 3: cotton aphid, irrigation, 200 ppm); conditions: cotton aphid on cucumber seedling, irrigation into plant foot, 200 ppm (method of Test Example 3)
Procedure: Cucumber seedling (on the developmental stage of the second true leaf) was planted in a polyethylene cup, and the diluted solutions 5 mL were irrigated into the plant foot, and the plants were held at 25° C. in a greenhouse for 7 days. Approximately 30 heads of cotton aphid (Aphis gossypii) (all stages of life) were inoculated onto the cucumber leaves and the plants were held in a greenhouse for additional 6 days, and then the number of the surviving […] parasitic on the cucumber leaves was examined and the controlling value was calculated by the following equation. Controlling value (%)={1-(Cb×Tai)/(Cai×Tb)}×100 wherein the symbols in the formula represent the following descriptions. Cb: Number of the insects before treatment in untreated area; Cai: Number of the surviving parasitic insects at the time of the investigation in untreated area; Tb: Number of the insects before treatment in treated area; Tai: Number of the surviving parasitic insects at the time of the investigation in treated area; Here the “untreated area” represents an area that was sprayed by a diluted solution of the formulation described in the Formulation Example 5 without the compound A with water in the same amount as that of the treated area. […] Here A represents 100%, B represents 90 to 99%, C represents 60 to 89%, D represents 30 to 59% and represents 0 to 29% as a control value.

[6] = system: cotton aphid (Aphis gossypii); assay: Comparative Experiment 2 (method of Test Example 2: cotton aphid, spray, 200 ppm); conditions: cotton aphid on cucumber seedling, 200 ppm (method of Test Example 2)
Procedure: Cucumber seedling (on the developmental stage of the first true leaf) was planted in a polyethylene cup and 30 heads of cotton aphid (Aphis gossypii) (all stages of life) were released onto the leaves of the cucumber and allowed to stand for 1 day. The diluted solutions 20 mL were sprayed into the seedling. Cucumber (cv; Sagami-hanjiro-fushinari) was grown in a polyethylene cup until the first true leaf was developed. Approximately 30 heads of cotton aphid (Aphis gossypii) (including the adults and the larvae) was released onto the leaves of the […] and next day, the above-mentioned testing drug dilutions 20 mL were sprayed. After 6 days, the number of the surviving insects that were parasitic on the leaves of the cucumber was examined and the controlling value was calculated by the following equation. Controlling value (%)={1-(Cb×Tai)/(Cai×Tb)}×100 wherein the symbols in the formula represent the following descriptions. Cb: Number of the insects before treatment in untreated area; Cai: Number of the surviving parasitic insects at the time of the investigation in untreated area; Tb: Number of the insects before treatment in treated area; Tai: Number of the surviving parasitic insects at the time of the investigation in treated area; Here the “untreated area” represents an area that was sprayed by a diluted solution of the formulation described in the Formulation Example 5 without the compound A with water in the same amount as that of the treated area. […] Here A represents 100%, B represents 90 to 99%, C represents 60 to 89%, D represents 30 to 59% and represents 0 to 29% as a control value.

[7] = system: female adult housefly (Musca domestica); assay: whole plant or invertebrate; conditions: 24 h, read-out: Mortality of insects
Procedure: Each of the compounds S-2, S-3, S-7, S-8, and N-1 was made to a formulation according to a similar method to that described in the Formulation example 5 and was then diluted with water so that each of the active ingredient concentration was set to 500 ppm to prepare each of the diluted solution.
The bottom of the polyethylene cup having 5.5 cm diameter was matted with the same size of a filter paper, and 0.7 mL of the diluted solution was added dropwise to the filter paper and 30 mg sucrose as bait was placed in the cup uniformly. Ten (10) heads of female adult housefly (Musca domestica) were released into the polyethylene cup and the cup was covered with the lid. After 24 hours, the life and death of housefly was examined and the number of died insects was counted and the mortality of insects was calculated by the following equation. Mortality of insects (%)=(Number of dead insects/Number of tested insects)×100

Row | Structure (SMILES) | mortality at 500 ppm [1] [%] | mortality at 500 ppm [2] [%] | mortality at 200 ppm [3] [%] | control value, Comparative Experiment 5 [4] | control value, Comparative Experiment 3 [5] | control value, Comparative Experiment 2 [6] | mortality at 500 ppm [7] [%]
1 | CCS(=O)(=O)c1cccnc1-c1ccc(OS(=O)(=O)C(F)(F)F)cn1 [Compound O-1] | ≥ 80 | ≥ 80 |  |  |  |  | 
2 | CCS(=O)(=O)c1cccnc1-c1ccc(OS(=O)(=O)CC(F)(F)F)cn1 [Compound O-2] | ≥ 80 | ≥ 80 | ≥ 80 |  |  |  | 
3 | CCS(=O)(=O)c1cccnc1-c1ccc(SCC(F)(F)F)cn1 [Compound S-1] |  | ≥ 80 |  | A (A represents 100%) | B (B represents 90 to 99%) | A (A represents 100%) | 
4 | CCS(=O)(=O)c1cccnc1-c1ccc(SCC(F)(F)C(F)(F)F)cn1 [Compound S-4] | ≥ 80 |  |  |  |  |  | 
5 | CCS(=O)(=O)c1cccnc1-c1ccc(SC(F)(F)F)cn1 [Compound S-7] | ≥ 80 | ≥ 80 | ≥ 80 | A (A represents 100%) | A (A represents 100%) | A (A represents 100%) | 100
6 | CCS(=O)(=O)c1cccnc1-c1ccc([S+]([O-])C(F)(F)F)cn1 (centres unmarked) [Compound S-8] |  |  |  | A (A represents 100%) | A (A represents 100%) | A (A represents 100%) | 
7 | FC(F)(F)CSc1ccc(-c2ccc(C(F)(F)F)cc2)nc1 [Compound V-7, reference compound] |  |  |  | D (D represents 30 to 59%) | E (represents 0 to 29% as a control value) | E (represents 0 to 29% as a control value) | 
8 | FC(F)(F)Sc1ccc(-c2ccc(C(F)(F)F)cc2Cl)nc1 [Compound V-11, reference compound] |  |  |  | E (represents 0 to 29% as a control value) | E (represents 0 to 29% as a control value) | E (represents 0 to 29% as a control value) | 
9 | [O-][S+](c1ccc(-c2ccc(C(F)(F)F)cc2Cl)nc1)C(F)(F)F (centres unmarked) [Compound V-12, reference compound] |  |  |  | E (represents 0 to 29% as a control value) | E (represents 0 to 29% as a control value) | E (represents 0 to 29% as a control value) | 
